Reference: article PMC5084695 (Biochemistry, 2016)

How the values were obtained:
SbnA [1] = target: SbnA (Staphylococcus aureus, UniProt A6QDA0); experiment: coupled inorganic phosphate release assay; type: biochemical
SbnA [2] = target: SbnA (Staphylococcus aureus, UniProt A6QDA0, S185G); experiment: biochemical
SbnA [3] = target: SbnA (Staphylococcus aureus, UniProt A6QDA0, S185G/Y152F); experiment: biochemical

## N[C@@H](CS)C(=O)O [L-cysteine]
SbnA [1]
  Ki: 91 ± 16 µM
SbnA [2]
  Ki: 2100 ± 500 µM
SbnA [3]
  Kd: 8900 ± 3200 µM
